Experimental data: ChEMBL document CHEMBL1145929, “Syntheses and binding studies of new [(aryl)(aryloxy)methyl]piperidine derivatives and related compounds as potential antidepressant drugs with high affinity for serotonin (5-HT) and norepinephrine (NE) transporters” (J Med Chem, 2003)

Columns and labels:
[1] = target: 5-hydroxytryptamine receptor 2A (Rattus norvegicus, UniProt P14842); experiment: Binding affinity against 5-hydroxytryptamine 2A receptor by displacement of [3H]-ketanserin from rat prefrontal cerebral cortex mambranes; assay type: tissue-based, Frontal cortex
[2] = target: T1, 5-hydroxytryptamine receptor 1A (Rattus norvegicus, UniProt P19327); experiment: Binding affinity against 5-hydroxytryptamine 1A receptor (5-HT1A) by displacement of [3H]8-OH-DPAT from rat hippocampus membranes; assay type: cell membranes, Membrane
T1 sequence (P19327 whole entry): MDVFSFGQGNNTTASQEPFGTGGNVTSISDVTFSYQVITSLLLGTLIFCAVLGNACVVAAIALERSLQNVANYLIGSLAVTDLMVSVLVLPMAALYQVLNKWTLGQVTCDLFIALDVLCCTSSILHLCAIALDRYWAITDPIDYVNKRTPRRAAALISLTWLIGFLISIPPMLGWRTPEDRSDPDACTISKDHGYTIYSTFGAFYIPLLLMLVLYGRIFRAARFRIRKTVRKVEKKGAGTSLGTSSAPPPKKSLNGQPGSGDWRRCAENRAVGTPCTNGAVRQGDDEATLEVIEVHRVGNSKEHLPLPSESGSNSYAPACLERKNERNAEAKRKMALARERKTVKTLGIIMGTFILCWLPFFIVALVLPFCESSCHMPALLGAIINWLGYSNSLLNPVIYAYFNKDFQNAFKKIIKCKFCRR

[3] = target: T2, Sodium-dependent serotonin transporter (Rattus norvegicus, UniProt P31652); experiment: Binding affinity to the serotonin transporter (SERT) measured by displacement of [3H]paroxetine in male wistar rats
[4] = target: T2, Sodium-dependent serotonin transporter; experiment: Binding affinity against serotonin transporter (SERT) by displacement of [3H]paroxetine in male wistar rats

T2 sequence (P31652 whole entry): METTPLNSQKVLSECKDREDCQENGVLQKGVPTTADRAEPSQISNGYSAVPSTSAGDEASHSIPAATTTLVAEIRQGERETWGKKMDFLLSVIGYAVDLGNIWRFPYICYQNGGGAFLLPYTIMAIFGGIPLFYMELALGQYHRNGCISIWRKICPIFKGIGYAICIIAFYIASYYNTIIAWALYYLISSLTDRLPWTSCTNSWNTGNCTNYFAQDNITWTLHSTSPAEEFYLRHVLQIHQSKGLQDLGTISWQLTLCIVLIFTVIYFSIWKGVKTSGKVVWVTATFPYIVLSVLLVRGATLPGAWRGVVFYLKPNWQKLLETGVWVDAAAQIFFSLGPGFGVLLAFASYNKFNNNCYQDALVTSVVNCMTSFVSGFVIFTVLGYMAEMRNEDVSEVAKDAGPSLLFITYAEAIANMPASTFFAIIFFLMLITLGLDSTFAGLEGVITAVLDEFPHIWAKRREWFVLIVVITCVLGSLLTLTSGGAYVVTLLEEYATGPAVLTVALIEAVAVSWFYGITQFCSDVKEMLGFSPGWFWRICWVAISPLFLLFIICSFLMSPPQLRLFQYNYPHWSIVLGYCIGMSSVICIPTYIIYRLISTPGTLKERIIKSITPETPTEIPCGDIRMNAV
Sequence of 5-hydroxytryptamine receptor 2A (P14842 whole entry): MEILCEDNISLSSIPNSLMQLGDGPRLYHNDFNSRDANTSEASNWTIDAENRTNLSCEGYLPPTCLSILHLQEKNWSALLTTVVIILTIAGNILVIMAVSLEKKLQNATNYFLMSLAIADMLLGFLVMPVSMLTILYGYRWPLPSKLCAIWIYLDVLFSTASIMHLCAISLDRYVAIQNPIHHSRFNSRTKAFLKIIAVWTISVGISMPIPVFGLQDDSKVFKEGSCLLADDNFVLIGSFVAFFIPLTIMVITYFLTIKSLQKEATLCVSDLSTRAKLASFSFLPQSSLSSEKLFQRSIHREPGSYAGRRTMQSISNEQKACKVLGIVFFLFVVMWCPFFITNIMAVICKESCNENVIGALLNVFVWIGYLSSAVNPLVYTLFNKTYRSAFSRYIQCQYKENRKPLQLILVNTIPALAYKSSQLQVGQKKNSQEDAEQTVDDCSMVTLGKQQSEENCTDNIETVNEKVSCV

SMILES | IC50 [1] | IC50 [2] | Ki [3] | IC50 [4]
N#Cc1cccc(OC(c2ccccc2)C2CCNCC2)c1 (stereo in doubt; 15k) | > 1000 nM | > 1000 nM | 1 nM | 
Oc1cc2c(cc1O)CN(CCC(Oc1ccccc1F)c1ccccc1)CC2 (stereo not drawn) | > 1000 nM | > 1000 nM |  | > 1000 nM
N#Cc1ccc(OC(c2ccc(F)cc2)C2CCCNC2)cc1 (stereo not drawn) | > 1000 nM | > 1000 nM | 40 nM | 
COc1cc2c(cc1OC)CN(CCC(Oc1ccccc1C(F)(F)F)c1ccccc1)CC2 (stereo not drawn) | > 1000 nM | > 1000 nM | 134 nM | 
Fc1ccc(C(Oc2ccc3c(c2)OCO3)C2CCCNC2)cc1 (stereo not drawn) | > 1000 nM | > 1000 nM | 4.2 nM | 
Fc1ccc(OC(c2ccccc2)C2CCNCC2)cc1 (single isomer, unassigned; (-)) | > 1000 nM | > 1000 nM |  | 
CC(=O)N1CCC(C(Oc2ccccc2)c2ccc(F)cc2)CC1 (stereo not drawn) | > 1000 nM | > 1000 nM |  | > 1000 nM
Cc1ccc(OC(CCN2CCc3ccccc3C2)c2ccccc2)cc1 (stereo not drawn) | > 1000 nM | > 1000 nM |  | > 1000 nM
c1ccc(C(Oc2cccc3ccccc23)C2CCNCC2)cc1 (stereo in doubt; 15au) | > 1000 nM | > 1000 nM | 8.3 nM | 
Cc1ccc(Cl)cc1OC(c1ccccc1)C1CCNCC1 (stereo not drawn) | > 1000 nM | > 1000 nM | 15.6 nM | 
Fc1cc(F)cc(OC(c2ccccc2)C2CCNCC2)c1 (stereo in doubt; 15aj) | > 1000 nM | > 1000 nM | 3.4 nM | 
Oc1cc2c(cc1O)CN(CCC(Oc1ccc(Cl)cc1)c1ccccc1)CC2 (stereo not drawn) | > 1000 nM | > 1000 nM |  | > 1000 nM
Ic1cccc(OC(c2ccccc2)C2CCNCC2)c1 (stereo not drawn) | > 1000 nM | > 1000 nM | 3.7 nM | 
Fc1cccc(OC(c2ccccc2)C2CCCC2)c1 (stereo not drawn) | > 1000 nM | > 1000 nM |  | > 1000 nM
COc1ccc(OC(c2ccc(F)cc2)C2CCCNC2)cc1 (stereo not drawn) | > 1000 nM | > 1000 nM | 20.8 nM | 
Fc1ccc(C(Oc2ccc(Cl)c(Cl)c2)C2CCCNC2)cc1 (stereo not drawn) | > 1000 nM | > 1000 nM | 32.2 nM | 
Ic1ccc(OC(c2ccccc2)C2CCNCC2)cc1 (stereo not drawn) | > 1000 nM | > 1000 nM | 20.6 nM | 
Fc1ccc([C@@H]2CCNC[C@H]2COc2ccc3c(c2)OCO3)cc1 [PAROXETINE] |  | > 1000 nM |  | 
COc1ccc(OC(CC2CCNCC2)c2ccccc2)cc1 (stereo not drawn) | > 1000 nM | > 1000 nM | 47 nM | 
Fc1ccc(OC(c2ccc(F)cc2)C2CCCNC2)cc1 (stereo not drawn) | > 1000 nM | > 1000 nM | 23.4 nM | 
Cc1c(F)cccc1OC(c1ccccc1)C1CCNCC1 (stereo not drawn) | > 1000 nM | > 1000 nM | 5.3 nM | 
Brc1cccc(OC(c2ccccc2)C2CCNCC2)c1 (stereo not drawn) | > 1000 nM | > 1000 nM | 10 nM | 
Brc1ccc(OC(c2ccccc2)C2CCNCC2)cc1 (stereo in doubt; 15r) | > 1000 nM | > 1000 nM | 2 nM | 

SMILES | IC50 [1] | IC50 [2] | Ki [3] | IC50 [4]
FC(F)(F)c1ccccc1OC(c1ccccc1)C1CCNCC1 (stereo not drawn) | > 1000 nM | > 1000 nM | 124 nM | 
Fc1cccc(OC(c2ccccc2)C2CCOCC2)c1 (stereo not drawn) | > 1000 nM | > 1000 nM |  | > 1000 nM
Clc1ccc(OC(c2ccccc2)C2CCNCC2)cc1Cl (stereo not drawn) | > 1000 nM | > 1000 nM | 9.9 nM | 
Clc1ccc(C(Oc2ccccc2)C2CCNCC2)cc1 (stereo not drawn) | > 1000 nM | > 1000 nM | 19.4 nM | 
N#Cc1ccc(OC(CC2CCNCC2)c2ccc(F)cc2)cc1 (stereo not drawn) | > 1000 nM | > 1000 nM | 16.9 nM | 
Fc1cccc(OC(c2cccc(F)c2)C2CCNCC2)c1 (stereo in doubt; (-)-15u) | > 1000 nM | > 1000 nM |  | 
Fc1ccccc1OC(CCN1CCc2ccccc2C1)c1ccccc1 (stereo not drawn) | > 1000 nM | > 1000 nM |  | > 1000 nM
COc1ccc(OC(c2ccc(F)cc2)C2CCN(C(C)=O)CC2)cc1 (stereo not drawn) | > 1000 nM | > 1000 nM |  | > 1000 nM
Cc1c(Cl)cccc1OC(c1ccccc1)C1CCNCC1 (stereo not drawn) | > 1000 nM | > 1000 nM | 12.2 nM | 
Oc1cc(F)cc(OC(c2ccccc2)C2CCNCC2)c1 (stereo not drawn) | > 1000 nM | > 1000 nM | 2 nM | 
COc1cc2c(cc1OC)CN(CCC(Oc1ccc(Cl)cc1)c1ccccc1)CC2 (stereo not drawn) | > 1000 nM | > 1000 nM |  | > 1000 nM
Cc1ccc(OC(CCN2CCc3cc(O)c(O)cc3C2)c2ccccc2)cc1 (stereo not drawn) | > 1000 nM | > 1000 nM |  | > 1000 nM
COc1ccc(OC(c2ccc(F)cc2)C2CCNCC2)cc1 (stereo not drawn) | > 1000 nM | > 1000 nM | 0.9 nM | 
Fc1ccc(C(Oc2ccc(Cl)cc2)C2CCCNC2)cc1 (stereo not drawn) | > 1000 nM | > 1000 nM | 13.9 nM | 
COc1cc(F)cc(OC(c2ccccc2)C2CCNCC2)c1 (stereo not drawn) | > 1000 nM | > 1000 nM | 1.9 nM | 
Fc1ccc(OC(c2ccc(Cl)cc2)C2CCNCC2)cc1 (stereo not drawn) | > 1000 nM | > 1000 nM | 7.5 nM | 
COc1cc2c(cc1OC)CN(CCC(Oc1ccc(C)cc1)c1ccccc1)CC2 (stereo not drawn) | > 1000 nM | > 1000 nM |  | 325 nM
Clc1cccc(OC(c2ccccc2)C2CCNCC2)c1 (stereo in doubt; 15l) | > 1000 nM | > 1000 nM |  | 
Fc1cccc(OC(c2ccccc2)C2CCNCC2)c1 (stereo in doubt; 15j) | > 1000 nM | > 1000 nM |  | 
N#Cc1ccccc1OC(c1ccccc1)C1CCNCC1 (stereo not drawn) | > 1000 nM | > 1000 nM | 105 nM | 
N#Cc1ccc(OC(c2ccccc2)C2CCNCC2)cc1Cl (stereo not drawn) | > 1000 nM | > 1000 nM | 3.9 nM | 
Oc1ccc(OC(c2ccccc2)C2CCNCC2)cc1F (stereo not drawn) | > 1000 nM | > 1000 nM | 21.3 nM | 
Fc1ccccc1OC(c1ccccc1)C1CCNCC1 (stereo in doubt; 15b) | > 1000 nM | > 1000 nM | 6.3 nM | 

SMILES | IC50 [1] | IC50 [2] | Ki [3] | IC50 [4]
Fc1cccc(C(Oc2ccccc2F)C2CCNCC2)c1 (stereo in doubt; 15t) | > 1000 nM | > 1000 nM | 9.3 nM | 
FC(F)(F)c1ccccc1OC(CCN1CCc2ccccc2C1)c1ccccc1 (stereo not drawn) | > 1000 nM | > 1000 nM |  | > 1000 nM
c1ccc(OC(c2ccccc2)C2CCNCC2)cc1 (stereo not drawn) | > 1000 nM | > 1000 nM | 2.3 nM | 
Cc1ccc(OC(c2ccc(F)cc2)C2CCCNC2)cc1 (stereo not drawn) | > 1000 nM | > 1000 nM | 22.6 nM | 
FC(F)(F)c1ccc(OC(c2ccccc2)C2CCNCC2)cc1 (stereo not drawn) | > 1000 nM | > 1000 nM | 17.1 nM | 
CNCCC(Oc1ccccc1OC)c1ccccc1 (stereo not drawn) [NISOXETINE] | > 1000 nM | > 1000 nM |  | 
Fc1ccc(C(Oc2cccc3ccccc23)C2CCCNC2)cc1 (stereo not drawn) | > 1000 nM | > 1000 nM | 21.5 nM | 
Clc1ccc(OC(CCN2CCc3ccccc3C2)c2ccccc2)cc1 (stereo not drawn) | > 1000 nM | > 1000 nM |  | > 1000 nM
Oc1cc2c(cc1O)CN(CCC(Oc1ccccc1C(F)(F)F)c1ccccc1)CC2 (stereo not drawn) | > 1000 nM | > 1000 nM |  | > 1000 nM
Fc1ccc(C(Oc2ccccc2)C2CCCNC2)cc1 (stereo not drawn) | > 1000 nM | > 1000 nM | 40.6 nM | 
COc1ccc(C(CN(C)C)C2(O)CCCCC2)cc1 (stereo not drawn) [VENLAFAXINE] |  | > 1000 nM |  | 
O=[N+]([O-])c1ccc(OC(c2ccccc2)C2CCNCC2)cc1 (stereo in doubt; 15m) | > 1000 nM | > 1000 nM | 2.4 nM | 
Clc1ccccc1OC(c1ccccc1)C1CCNCC1 (stereo not drawn) | > 1000 nM | > 1000 nM | 8.2 nM | 
Fc1cccc(OC(c2cccc(F)c2)C2CCNCC2)c1 (stereo in doubt; 15u) | > 1000 nM | > 1000 nM | 16.1 nM | 
Cc1ccc(C(Oc2cccc(F)c2)C2CCNCC2)cc1 (stereo not drawn) | > 1000 nM | > 1000 nM | 14.1 nM | 
N#Cc1cc(F)cc(OC(c2ccccc2)C2CCNCC2)c1 (stereo not drawn) | > 1000 nM | > 1000 nM | 2.6 nM | 
Fc1ccc(OC(c2ccc(F)cc2)C2CCNCC2)cc1 (stereo not drawn) | > 1000 nM | > 1000 nM | 0.9 nM | 
c1ccc(-c2ccc(OC(c3ccccc3)C3CCNCC3)cc2)cc1 (stereo not drawn) | > 1000 nM | > 1000 nM |  | > 1000 nM
COc1cc2c(cc1OC)CN(CCC(Oc1ccccc1F)c1ccccc1)CC2 (stereo not drawn) | > 1000 nM | > 1000 nM | 207 nM | 
Fc1ccc(C(Oc2ccc(C(F)(F)F)cc2)C2CCCNC2)cc1 (stereo not drawn) | > 1000 nM | > 1000 nM | 26.2 nM | 
Fc1ccc(OC(c2ccccc2)C2CCNCC2)cc1 (stereo in doubt; 15p) | > 1000 nM | > 1000 nM | 1.1 nM | 
FC(F)(F)c1cccc(OC(c2ccccc2)C2CCNCC2)c1 (stereo not drawn) | > 1000 nM | > 1000 nM | 9 nM | 
Oc1c(F)cccc1OC(c1ccccc1)C1CCNCC1 (stereo not drawn) | > 1000 nM | > 1000 nM | 15.5 nM | 
